# Assay results reported in patent US8575158B2, “1-phenyl-substituted heterocyclyl derivatives and their use as prostaglandin D2 receptor modulators” (Actelion Pharmaceuticals Ltd., priority 2010, dated 2013).
# Target: T1, hCRTH2 receptor (Homo sapiens, UniProt Q9Y5Y4)
# T1 construct: expressed in transfected cells; host or cells: HEK293
# T1 sequence (Q9Y5Y4 1-395): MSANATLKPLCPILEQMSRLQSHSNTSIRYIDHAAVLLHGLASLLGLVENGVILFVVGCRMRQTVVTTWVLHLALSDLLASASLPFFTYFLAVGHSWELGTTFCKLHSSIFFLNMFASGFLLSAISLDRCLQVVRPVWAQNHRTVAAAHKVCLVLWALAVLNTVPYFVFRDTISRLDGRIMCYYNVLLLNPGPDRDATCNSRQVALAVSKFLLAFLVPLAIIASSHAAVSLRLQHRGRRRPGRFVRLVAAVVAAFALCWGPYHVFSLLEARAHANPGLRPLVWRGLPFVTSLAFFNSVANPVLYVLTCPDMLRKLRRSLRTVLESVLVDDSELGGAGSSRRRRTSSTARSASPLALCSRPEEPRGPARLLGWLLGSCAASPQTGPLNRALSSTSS
# Experiment: Radioligand displacement assay (3H-PGD2) on hCRTH2 receptor membranes
# Type: binding
# Conditions: antagonistic activity
# [1] = 3H-PGD2 displacement on HEK293-hCRTH2 membrane fragments
# [2] = 3H-PGD2 radioligand displacement, HEK293-hCRTH2 membranes
SMILES,IC50 [1],IC50 [2]
"CS(=O)(=O)Nc1cccc2c1CCN(C(=O)OCc1ccccc1)C2c1cc(F)ccc1OCC(=O)O (racemic) [Example 222, (±)-1-(2-Carboxymethoxy-5-fluoro-phenyl)-5-methanesulfonylamino-3,4-dihydro-1H-isoquinoline-2-carboxylic acid benzyl ester]",141 nM,–
"O=C(O)COc1ccc(-n2ccnn2)cc1C1c2ccccc2CCN1C(=O)OCc1ccccc1 (racemic) [Example 223, (±)-1-(2-Carboxymethoxy-5-[1,2, 3]triazol-1-yl-phenyl)-3,4-dihydro-1H-isoquinoline-2-carboxylic acid benzyl ester]",7.01 nM,–
"O=C(O)COc1ccc(-n2nccn2)cc1C1c2ccccc2CCN1C(=O)OCc1ccccc1 (racemic) [Example 224, (±)-1-(2-Carboxymethoxy-5-[1,2, 3]triazol-2-yl-phenyl)-3,4-dihydro-1H-isoquinoline-2-carboxylic acid benzyl ester]",12.7 nM,–
"COc1ccccc1CNC(=S)N1CCc2ccccc2C1c1cc(Cl)ccc1OCC(=O)O (racemic) [Example 225, (±)-{4-Chloro-2-[2-(2-methoxy-benzylthiocarbamoyl)-1,2,3,4-tetrahydro-isoquinolin-1-yl]-phenoxy}-acetic acid]",76.5 nM,–
"O=C(O)COc1ccc(Cl)cc1C1c2ccc(F)cc2CCN1C(=O)OCc1ccccc1 (racemic) [Example 226, (±)-1-(2-Carboxymethoxy-5-chloro-phenyl)-6-fluoro-3,4-dihydro-1H-isoquinoline-2-carboxylic acid benzyl ester]",5.23 nM,–
O=C(O)COc1ccc(Cl)cc1C1c2ccccc2CCN1C(=O)OCc1ccccc1Br (racemic) [Example 227],7.21 nM,–
O=C(O)COc1ccc(Cl)cc1C1c2ccccc2CN1C(=O)OCc1ccccc1 (racemic) [Example 230],12.8 nM,–
COc1ccccc1COC(=O)N1CCc2ccccc2C1c1cc(Cl)ccc1OCC(=O)O (racemic) [Example 233],4.55 nM,–
O=C(O)COc1ccc(Cl)cc1C1c2ccccc2CCN1C(=O)OCc1ccccc1F (racemic) [Example 234],3.61 nM,–
Cc1ccccc1COC(=O)N1CCc2ccccc2C1c1cc(Cl)ccc1OCC(=O)O (racemic) [Example 235],5.62 nM,–
O=C(O)COc1ccc(Cl)cc1C1c2ccccc2CCN1C(=O)OCc1ccccc1C(F)(F)F (racemic) [Example 236],5.59 nM,–
COc1cccc(COC(=O)N2CCc3ccccc3C2c2cc(Cl)ccc2OCC(=O)O)c1 (racemic) [Example 237],4.02 nM,–
O=C(O)COc1ccc(Cl)cc1C1c2ccccc2CCN1C(=O)OCc1cccc(F)c1 (racemic) [Example 238],12.6 nM,–
Cc1cccc(COC(=O)N2CCc3ccccc3C2c2cc(Cl)ccc2OCC(=O)O)c1 (racemic) [Example 239],17.7 nM,–
O=C(O)COc1ccc(Cl)cc1C1c2ccccc2CCN1C(=O)OCc1cccc(C(F)(F)F)c1 (racemic) [Example 240],18.6 nM,–
O=C(O)COc1ccc(Cl)cc1C1c2ccccc2CCN1C(=O)OCc1ccc(Cl)cc1Cl (racemic) [Example 241],0.96 nM,–
O=C(O)COc1ccc(Cl)cc1C1c2ccccc2CCN1C(=O)OCc1cccc(Cl)c1Cl (racemic) [Example 242],1.07 nM,–
O=C(O)COc1ccc(Cl)cc1C1c2ccccc2CCN1C(=O)OCc1c(Cl)cccc1Cl (racemic) [Example 243],6.48 nM,–
COc1cccc(OC)c1COC(=O)N1CCc2ccccc2C1c1cc(Cl)ccc1OCC(=O)O (racemic) [Example 244],7.67 nM,–
Cc1ccc(COC(=O)N2CCc3ccccc3C2c2cc(Cl)ccc2OCC(=O)O)c(C)c1 (racemic) [Example 245],2.87 nM,–
Cc1cccc(COC(=O)N2CCc3ccccc3C2c2cc(Cl)ccc2OCC(=O)O)c1C (racemic) [Example 246],3.43 nM,–

SMILES,IC50 [1],IC50 [2]
Cc1cccc(C)c1COC(=O)N1CCc2ccccc2C1c1cc(Cl)ccc1OCC(=O)O (racemic) [Example 247],17.3 nM,–
O=C(O)COc1ccc(Cl)cc1C1c2ccccc2CCN1C(=O)OCc1ccc(F)cc1F (racemic) [Example 248],3.3 nM,–
O=C(O)COc1ccc(Cl)cc1C1c2ccccc2CCN1C(=O)OCc1cccc(F)c1F (racemic) [Example 249],3.86 nM,–
O=C(O)COc1ccc(Cl)cc1C1c2ccccc2CCN1C(=O)OCc1c(F)cccc1F (racemic) [Example 250],6.84 nM,–
Cc1cc(C)c(COC(=O)N2CCc3ccccc3C2c2cc(Cl)ccc2OCC(=O)O)c(C)c1 (racemic) [Example 251],12.3 nM,–
O=C(O)COc1ccc(Cl)cc1C1c2ccccc2CCN1C(=O)OCc1c(F)cccc1Cl (racemic) [Example 252],3.98 nM,–
O=C(O)COc1ccc(Cl)cc1C1c2ccccc2CCN1C(=O)OCc1cc(Cl)ccc1Cl (racemic) [Example 253],6.52 nM,–
COc1ccc(COC(=O)N2CCc3ccccc3C2c2cc(Cl)ccc2OCC(=O)O)c(OC)c1 (racemic) [Example 254],16 nM,–
COc1cccc(COC(=O)N2CCc3ccccc3C2c2cc(Cl)ccc2OCC(=O)O)c1OC (racemic) [Example 255],4.9 nM,–
Cc1ccc(COC(=O)N2CCc3ccccc3C2c2cc(Cl)ccc2OCC(=O)O)c(C)n1 (racemic) [Example 256],14.1 nM,–
N#Cc1cccc(COC(=O)N2CCc3ccccc3C2c2cc(Cl)ccc2OCC(=O)O)c1 (racemic) [Example 257],5.72 nM,–
O=C(O)COc1ccc(Cl)cc1C1c2ccccc2CCN1C(=O)OCc1cc(F)ccc1F (racemic) [Example 258],7.54 nM,–
O=C(O)COc1ccc(Cl)cc1C1c2ccccc2CCN1C(=O)OCc1cc(Cl)ccc1F (racemic) [Example 259],5.29 nM,–
O=C(O)COc1ccc(Cl)cc1C1c2ccccc2CCN1C(=O)OCc1cc(F)ccc1Cl (racemic) [Example 260],15.1 nM,–
O=C(O)COc1ccc(Cl)cc1C1c2ccccc2CCN1C(=O)OCC1CCCCC1 (racemic) [Example 262],9.43 nM,–
Cn1ccc(COC(=O)N2CCc3ccccc3C2c2cc(Cl)ccc2OCC(=O)O)n1 (racemic) [Example 263],7.91 nM,–
O=C(O)COc1ccc(Cl)cc1C1c2ccccc2CCN1C(=O)OCC1CCCC1 (racemic) [Example 264],13.1 nM,–
CC(C)COC(=O)N1CCc2ccccc2C1c1cc(Cl)ccc1OCC(=O)O (racemic) [Example 265],37.6 nM,–
CCCCOC(=O)N1CCc2ccccc2C1c1cc(Cl)ccc1OCC(=O)O (racemic) [Example 266],24.5 nM,–
COCCOC(=O)N1CCc2ccccc2C1c1cc(Cl)ccc1OCC(=O)O (racemic) [Example 267],21.2 nM,–
O=C(O)COc1ccc(Cl)cc1C1c2ccccc2CCN1C(=O)OCC1CC1 (racemic) [Example 268],27.7 nM,–

SMILES,IC50 [1],IC50 [2]
Cc1cc(C)n(COC(=O)N2CCc3ccccc3C2c2cc(Cl)ccc2OCC(=O)O)n1 (racemic) [Example 269],4.95 nM,–
Cc1cc(COC(=O)N2CCc3ccccc3C2c2cc(Cl)ccc2OCC(=O)O)no1 (racemic) [Example 270],8.31 nM,–
Cc1cc(COC(=O)N2CCc3ccccc3C2c2cc(Cl)ccc2OCC(=O)O)nn1C (racemic) [Example 271],12 nM,–
O=C(O)COc1ccc(Cl)cc1C1c2ccccc2CCN1C(=O)OCc1ccc(Cl)cc1 (racemic) [Example 272],17.1 nM,–
Cc1ccc(COC(=O)N2CCc3ccccc3C2c2cc(Cl)ccc2OCC(=O)O)cc1 (racemic) [Example 360],–,18.8 nM
COc1ccc(COC(=O)N2CCc3ccccc3C2c2cc(Cl)ccc2OCC(=O)O)cc1 (racemic) [Example 361],–,22.8 nM
O=C(O)COc1ccc(Cl)cc1C1c2ccccc2CCN1C(=O)OCc1ccc(F)cc1 (racemic) [Example 362],–,14.3 nM
O=C(O)COc1ccc(Cl)cc1C1c2ccccc2CCN1C(=O)OCc1ccc(C(F)(F)F)cc1 (racemic) [Example 363],–,34.1 nM
O=C(O)COc1ccc(Cl)cc1C1c2ccccc2CCN1C(=O)OCc1cccc(Cl)c1 (racemic) [Example 364],–,16.5 nM
O=C(O)COc1ccc(Cl)cc1C1c2cc(F)ccc2CCN1C(=O)OCc1ccccc1 (racemic) [Example 365],–,37.8 nM
O=C(O)COc1ccccc1C1c2ccccc2CCN1C(=O)OCc1ccccc1 (racemic) [Example 366],–,41.5 nM
Cc1cn(CCC(=O)N2CCc3ccccc3C2c2cc(Cl)ccc2OCC(=O)O)c2ccc(F)cc12 (racemic) [Example 368],–,20.7 nM
O=C(O)COc1ccc(Cl)cc1C1c2ccccc2CCN1C(=O)CCn1ccc2cccnc21 (racemic) [Example 369],–,195 nM
O=C(O)COc1ccc(Cl)cc1C1c2ccccc2CCN1C(=O)CCn1ccc2ccc(C(F)(F)F)cc21 (racemic) [Example 370],–,80.6 nM
N#Cc1ccc2c(ccn2CCC(=O)N2CCc3ccccc3C2c2cc(Cl)ccc2OCC(=O)O)c1 (racemic) [Example 371],–,53.1 nM
O=C(O)COc1ccc(Cl)cc1C1c2ccccc2CCN1C(=O)CCn1ccc2ccncc21 (racemic) [Example 372],–,596 nM
COc1cc2c(ccn2CCC(=O)N2CCc3ccccc3C2c2cc(Cl)ccc2OCC(=O)O)cn1 (racemic) [Example 373],–,433 nM
COc1ccc2ccn(CCC(=O)N3CCc4ccccc4C3c3cc(Cl)ccc3OCC(=O)O)c2n1 (racemic) [Example 374],–,12.3 nM
COc1cc2c(ccn2CCC(=O)N2CCc3ccccc3C2c2cc(Cl)ccc2OCC(=O)O)cc1Cl (racemic) [Example 375],–,81.8 nM
